Measured values from article PMC10734772 (Turkish Journal of Chemistry, 2021).

Legend:
Assay type in all cases: cell-based
Jurkat = test: MTT assay, Jurkat cells; conditions: Homo sapiens, 24 h, read-out: Viability rate
K562 = test: MTT assay, K562 cells; conditions: Homo sapiens, 24 h, MTT, read-out: Viability rate
Nalm-6 = test: MTT assay, Nalm-6 cells; conditions: Homo sapiens, 24 h, MTT, read-out: Viability rate
[1] = MTT assay, Hek293T non-leukemic control cells; conditions: human, read-out: Viability rate
[2] = tested on: K562, Nalm-6, Molt-4, Reh, Jurkat, Hek293T cell lines; test: MTT assay, overall judgement over all cell lines; conditions: overall judgement in words; for 6 and 10: on all cell lines, except Reh
Summary of the method: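 MTT viability assay run across a range of compound concentrations in leukemic lines, BCR-ABL positive K562 and BCR-ABL negative Nalm-6, Molt-4, Reh, Jurkat, plus non-leukemic Hek293T. Viability rate calculated per concentration.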

Reh = test: MTT assay, Reh cells; conditions: Homo sapiens, 24 h, read-out: Viability rate
Molt-4 = test: MTT assay, Molt-4 cells; conditions: Homo sapiens, MOLT-4, 24 h, read-out: Viability rate

SMILES: Cc1ccc(NC(=O)c2ccc(CN3CCN(c4ncccn4)CC3)cc2)cc1Nc1cnccn1 [Compound 7, N-(4-Methyl-3-(pyrazin-2-ylamino)phenyl)-4-((4-(pyrimidin-2-yl)piperazin-1-yl)methyl)benzamide]
- viability at 0.3 µM (Jurkat; 0.3 μM): 77.4 ± 0.09%
- viability at 0.5 µM (Jurkat; 0.5 μM): 77.3 ± 0.07%
- viability at 1 µM (Jurkat; 1 μM): 75.7 ± 0.03%
- viability at 3 µM (Jurkat; 3 μM): 75.5 ± 0.05%
- viability at 5 µM (Jurkat; 5 μM): 75.6 ± 0.03%
- viability at 10 µM (Jurkat; 10 μM): 74.6 ± 0.06%
- viability at 15 µM (Jurkat; 15 μM): 74.2 ± 0.05%
- viability at 20 µM (Jurkat; 20 μM): 74 ± 0.06%
- viability at 30 µM (Jurkat; 30 μM): 73.2 ± 0.07%
- viability at 50 µM (Jurkat; 50 μM): 72.8 ± 0.03%
- viability at 70 µM (Jurkat; 70 μM): 72.8 ± 0.03%
- viability at 100 µM (Jurkat; 100 μM): 72.7 ± 0.04%
- viability at 150 µM (Jurkat; 150 μM): 72.4 ± 0.09%
- viability at 200 µM (Jurkat; 200 μM): 72.1 ± 0.06%
- viability at 0.3 µM (K562; K562, 0.3 μM): 84.6 ± 0.15%
- viability at 0.5 µM (K562; K562, 0.5 μM): 84.5 ± 0.08%
- viability at 1 µM (K562; K562, 1 μM): 84.4 ± 0.08%
- viability at 3 µM (K562; K562, 3 μM): 84.5 ± 0.1%
- viability at 5 µM (K562; K562, 5 μM): 82.9 ± 0.12%
- viability at 10 µM (K562; K562, 10 μM): 81.6 ± 0.05%
- viability at 15 µM (K562; K562, 15 μM): 80.1 ± 0.06%
- viability at 20 µM (K562; K562, 20 μM): 64 ± 0.07%
- viability at 30 µM (K562; K562, 30 μM): 63.9 ± 0.04%
- viability at 50 µM (K562; K562, 50 μM): 62.9 ± 0.06%
- viability at 70 µM (K562; K562, 70 μM): 62.3 ± 0.07%
- viability at 100 µM (K562; K562, 100 μM): 62.2 ± 0.05%
- viability at 150 µM (K562; K562, 150 μM): 61.6 ± 0.05%
- viability at 200 µM (K562; K562, 200 μM): 59.5 ± 0.07%
- viability at 0.3 µM (Nalm-6; Nalm-6, 0.3 μM): 97.9 ± 0.06%
- viability at 0.5 µM (Nalm-6; Nalm-6, 0.5 μM): 95.1 ± 0.03%
- viability at 1 µM (Nalm-6; Nalm-6, 1 μM): 95.1 ± 0.03%
- viability at 3 µM (Nalm-6; Nalm-6, 3 μM): 96 ± 0.03%
- viability at 5 µM (Nalm-6; Nalm-6, 5 μM): 95.6 ± 0.02%
- viability at 10 µM (Nalm-6; Nalm-6, 10 μM): 95.1 ± 0.02%
- viability at 15 µM (Nalm-6; Nalm-6, 15 μM): 95.9 ± 0.03%
- viability at 20 µM (Nalm-6; Nalm-6, 20 μM): 96.4 ± 0.03%
- viability at 30 µM (Nalm-6; Nalm-6, 30 μM): 96.5 ± 0.05%
- viability at 50 µM (Nalm-6; Nalm-6, 50 μM): 72.3 ± 0.02%
- viability at 70 µM (Nalm-6; Nalm-6, 70 μM): 71.8 ± 0.02%
- viability at 100 µM (Nalm-6; Nalm-6, 100 μM): 71.3 ± 0.02%
- viability at 150 µM (Nalm-6; Nalm-6, 150 μM): 70.2 ± 0.01%
- viability at 200 µM (Nalm-6; Nalm-6, 200 μM): 59.7 ± 0.02%
- viability at 24 h, 0.3 µM ([1]; Hek293T cells (non-leukemic control cell line), 0.3 μM): 87.7 ± 0.06%
- viability at 24 h, 0.5 µM ([1]; Hek293T cells (non-leukemic control cell line), 0.5 μM): 87.6 ± 0.07%
- viability at 24 h, 3 µM ([1]; Hek293T cells (non-leukemic control cell line), 3 μM): 84.6 ± 0.05%
- viability at 24 h, 5 µM ([1]; Hek293T cells (non-leukemic control cell line), 5 μM): 81 ± 0.09%
- viability at 24 h, 10 µM ([1]; Hek293T cells (non-leukemic control cell line), 10 μM): 80.5 ± 0.06%
- viability at 24 h, 15 µM ([1]; Hek293T cells (non-leukemic control cell line), 15 μM): 80.3 ± 0.04%
- viability at 24 h, 20 µM ([1]; Hek293T cells (non-leukemic control cell line), 20 μM): 76 ± 0.03%
- viability at 24 h, 30 µM ([1]; Hek293T cells (non-leukemic control cell line), 30 μM): 72.1 ± 0.02%
- viability at 24 h, 50 µM ([1]; Hek293T cells (non-leukemic control cell line), 50 μM): 64.5 ± 0.02%
- viability at 24 h, 70 µM ([1]; Hek293T cells (non-leukemic control cell line), 70 μM): 64.2 ± 0.02%
- viability at 24 h, 100 µM ([1]; Hek293T cells (non-leukemic control cell line), 100 μM): 63.5 ± 0.07%
- viability at 24 h, 150 µM ([1]; Hek293T cells (non-leukemic control cell line), 150 μM): 60.8 ± 0.03%
- viability at 24 h, 200 µM ([1]; Hek293T cells (non-leukemic control cell line), 200 μM): 55.1 ± 0.02%
- viability at 24 h, 1 µM ([1]; Hek293T cells, 1 μM): 87 ± 0.08%
- anticancer activity according to MTT assay results [2]: very poor activity
- viability at 0.3 µM (Reh; 0.3 μM): 110 ± 0.02%
- viability at 0.5 µM (Reh; 0.5 μM): 109.8 ± 0.02%
- viability at 1 µM (Reh; 1 μM): 108.7 ± 0.02%
- viability at 3 µM (Reh; 3 μM): 103.4 ± 0.02%
- viability at 5 µM (Reh; 5 μM): 108.8 ± 0.02%
- viability at 10 µM (Reh; 10 μM): 106.5 ± 0.05%
- viability at 15 µM (Reh; 15 μM): 100.2 ± 0.02%
- viability at 20 µM (Reh; 20 μM): 95.5 ± 0.06%
- viability at 30 µM (Reh; 30 μM): 85.4 ± 0.02%
- viability at 50 µM (Reh; 50 μM): 66.7 ± 0.02%
- viability at 70 µM (Reh; 70 μM): 66.2 ± 0.03%
- viability at 100 µM (Reh; 100 μM): 67.7 ± 0.03%
- viability at 150 µM (Reh; 150 μM): 66.8 ± 0.02%
- viability at 200 µM (Reh; 200 μM): 62.8 ± 0.02%
- viability at 0.3 µM (Molt-4; Molt-4, 0.3 μM): 93.3 ± 0.16%
- viability at 0.5 µM (Molt-4; Molt-4, 0.5 μM): 93.8 ± 0.08%
- viability at 1 µM (Molt-4; Molt-4, 1 μM): 89.8 ± 0.07%
- viability at 3 µM (Molt-4; Molt-4, 3 μM): 89.6 ± 0.12%
- viability at 5 µM (Molt-4; Molt-4, 5 μM): 89.7 ± 0.08%
- viability at 10 µM (Molt-4; Molt-4, 10 μM): 89.5 ± 0.06%
- viability at 15 µM (Molt-4; Molt-4, 15 μM): 90.3 ± 0.04%
- viability at 20 µM (Molt-4; Molt-4, 20 μM): 90.2 ± 0.06%
- viability at 30 µM (Molt-4; Molt-4, 30 μM): 90.9 ± 0.06%
- viability at 50 µM (Molt-4; Molt-4, 50 μM): 92.2 ± 0.05%
- viability at 70 µM (Molt-4; Molt-4, 70 μM): 90.6 ± 0.06%
- viability at 100 µM (Molt-4; Molt-4, 100 μM): 85.5 ± 0.06%
- viability at 150 µM (Molt-4; Molt-4, 150 μM): 90.4 ± 0.04%
- viability at 200 µM (Molt-4; Molt-4, 200 μM): 89.8 ± 0.07%
